Measurements reported in patent US6667328B2, “Therapeutic agents for diabetes” (Fujimoto Brothers Co., Ltd., priority 2000, dated 2003).

Tests used:
[1] = tested on: db/db mice; experiment: Antihyperlipidemic activities in genetically diabetic mice; format: in vivo; details: 150 mg/kg p.o. once daily for 14 days, serum
Protocol: (§1) Genetically diabetic db/db mice (C57BL/ksJ Jcl-dbm db/db mice) older than 8 weeks were grouped depend on their blood sugar levels of the prior measurements in order to divide groups with almost equal mean value of the sugar level. The respective groups of db/db mice were designates as the following groups: the group given the compound of the present invention, the group of troglitazone, and the group given no administrating group. For the compounds of the present invention, two doses: 75 mg/kg and 150 mg/kg, and for troglitazone, a dose of 150 mg/kg were individually given to the mice as a forced oral administration once daily for 14 days successively. These agents were suspended in 3.0% Arabic gum solution for administration. To the control group, only the same volume of 3.0% Arabic gum solution was administered. On the next day of the final administration, each mouse was […] for sampling. The blood samples were subject to serum separation. The glucose level in the serum of each group was measured. Then, a reduction rate in a glucose level (%) compared to the control group was calculated with mean value of each group according to the equation below. […] [formula]
In the same way as described in EXAMPLE 4, db/db mice were grouped in the manner by which the respective groups had almost equivalent mean blood sugar levels. The compounds 1, 3, 13, 21 and 22 of the present invention, suspended in 3.0% Arabic gum solution, were orally administrated, with a dose of 150 mg/kg, once daily for successive 14 days. The control group of mice were given the vehicle solution only. On the next day of the final administration, each mouse was bled for sampling. The blood was subjected for serum separation, and then subjected to measurements of β-lipoproteins, free fatty acids, and triglycerides. The reduction rate (%) of each measurement compared to the control group was calculated by the equation indicated in EXAMPLE 4. […] (Table 9).

[2] = tested on: Genetically diabetic db/db mice (C57BL/ksJ Jcl-dbm db/db mice); experiment: Blood sugar lowering actions in genetically diabetic mice; format: in vivo; details: serum glucose vs control group
Protocol: as §1

[3] = tested on: Salmonella typhimurium TA100 and TA98; experiment: Mutagenesis tests (reverse mutation test); format: cell-based; details: TA100 and TA98, direct method (−s9mix) and metabolically activated method (+s9mix)
Protocol: In order to examine mutagenecity of the compound 1, the reverse mutation test was conducted with use of Salmonella typhimurium TA100 and TA98.

[4] = tested on: fructose-induced hyperlipidemic rats; experiment: Hypotriglyceridemic activity in fructose-induced hyperlipidemic rats; format: in vivo, Sprague Dawley rats; details: fructose-loaded rats, 30 mg/kg p.o. once daily for 7 days; for inhibition in vivo at 30 mg/kg: Rattus norvegicus, po, 168 h, read-out: Reduction in Serum Triglyceride (%)
Protocol: The compounds were tested for a hypotriglyceridemic activity in fructose-induced hyperlipidemic rats in accordance with the method described in Nippon Yakurigaku Zasshi, 92 (3), 175-180 (1988). Sprague Dawley rats were grouped by the ranking method of body weight. Then, instead of drinking water, rats were given 75% fructose aqueous ad libitum for one week, thereby, resulting in the state of hypertriglyceridemia. The compounds of the present invention, suspended in 3% Arabic gum aqueous solution, and a dose of 30 mg/kg was orally administrated once daily for 7 days during the fructose-loading period. The control group of rats were given 3% Arabic gum aqueous solution only. Two hours later of the final administration, the rats were bled from the abdominal aorta to measure serum triglycerides and total cholesterol. The reduction rate (%) of each measurement compared to the control groups was calculated according to the equation indicated in EXAMPLE 4.

[5] = tested on: mice; experiment: Acute toxicity tests with single dosing in mice; format: in vivo; details: 2000 mg/kg single oral dose, observed for 2 weeks
Protocol: The compounds (the compound 1 and 10) of the present invention were singly orally administered to each mouse at a dose of 2000 mg/kg.

[6] = tested on: high cholesterol-fed hamsters; experiment: Lipid lowering effects in high cholesterol-fed hamsters; format: in vivo, Syrian hamsters
Source text: According to the method described in Jpn Pharmacol Ther, 23 (suppl 4), s1047-1053 (1995), male Syrian hamstars were fed for 3 weeks with 1% cholesterol 10% coconut oil (W/W) supplemented diet, and thereby, became to be hypercholesterolemia models. Prior to administration of the compounds, under ether anesthesia, the hamsters were bled from the orbital vein for measurement of serum total cholesterol. They were grouped in the manner by which the respective groups had almost equal serum total cholesterol levels. The normal group of hamsters were fed ordinary diet. Thereafter, the compound 1 and bezafibrate were orally administered once daily at doses of 15 (for only compound 1), 30, 60 and 120 mg/kg for 7 days. Even during the treatment period, cholesterol loading was continued. Four hours later of the final administration, the hamsters were bled by cardiac puncture. The total cholesterol and triglycerides in the serum obtained were measured by the enzymatic method. The results are shown in Table 11 (the negative values mean elevation rates.)
The actions of the compounds of the present invention at a dose of 15 mg/kg were measured in the same method as described in EXAMPLE 8.

[7] = tested on: 3T3-L1 preadipocyte cells; experiment: Differentiation-inducing actions on adipose cells (oil red-O staining, absorbance at 490 nm); format: cell-based; details: 3T3-L1, oil red-O extract absorbance at 490 nm, ratio to control group (1.0)
Protocol: The cloned cell line 3T3-L1 of the preadipocyte cells at the 9-20th generation were used. The cell suspension at a concentration of 2×10^4 cells/ml was added 500 μl/well in a 24 well microplate. Then, the microplates were cultured at 37° C. in the atmosphere of 5% CO2 for 4 days with D-MEM containing 5% inactivated fetal calf serum (hereinafter abbreviated as “FCS D-MEM”). Next, the following procedures were conducted.
(1) To test compound of this invention, 500 μl/well of the following solutions was added to each well:
1) test compound-containing medium (T-MEM) in which the test compound in a stock solution (30 mM in DMSO) was diluted with FCS D-MEM containing 0.1 μM dexamethazone and 100 ng/ml insulin (hereinafter abbreviated as DEX-Ins-FCS D-MEM);
2) FCS-D-MEM; 3) DEX-Ins-FCS D-MEM; 4) 0.1% DMSO-containing DEX-Ins-FCS D-MEM for me control wells.
(2) After above additions were done, the culture plates were incubated at 37° C. in 5% CO2 for 3 days. Then, the same operations as in the procedure (1) were repeated for exchange of the culture medium. The culture plates were incubated at 37° C. in 5% CO2 for further 3 days.
(3) After incubation, the culture medium was removed from the culture plates. Then, the FCS D-MEM was added to the FCS D-MEM-wells, and next the medium prepared for containing 100 ng/ml of insulin with the FCS D-MEM (hereinafter abbreviated as “Ins-FCS D-MEM”) was added at 500 μl/well to the T-MEM wells and DEX-Ins-FCS D-MEM wells. All culture plates were incubated for 4 days.
(4) After incubation, the culture medium was removed. For cell fixation, 500 μl/well of 10% formalin in neutral buffer was added, and left at the room temperature for approximately 20 minutes or longer. Then the formalin solution was removed, and 60% 2-propanol solution was added at 500 μl/well, then quickly removed, and the oil red-O staining solution was added at 250 μl/well. The culture plates were sealed with plate seals, and left at room temperature for 30 minutes or longer. After incubation, the staining solution was removed, and the 60% 2-propanol solution was added at 500 μl/well, and quickly removed. The cells were rinsed with water a few times, and then water drops were flipped away. A cell-lysis buffer was added at 500 μl/well, and the culture plates were sealed with plate seals, and left at 37° C. for 1 hour to extract the pigments. Next, 300 μl/well of the extract solution was transferred at a 96 well micro-plates, and then the absorbance of each extract was measured at wavelength of 490 nm.
The absorbance ratios of the respective test compounds-groups to the control group, the mean absorbance of which was designated as 1.0, are shown in Table 8. Based on the judgement that the absorbance higher than that of the control group indicates a greater differentiation-inducing activity of the test compound, the compounds of the present invention were determined to have the activity to induce differentiation of preadipocytes to adipocytes, resulting in elevating insulin sensitivity of organs. Thereby, this activity would confer the efficacy in the therapy of diabetes.

[8] = 75 mg/kg oral once daily for 14 days
[9] = 150 mg/kg oral once daily for 14 days
[10] = 15 mg/kg oral once daily for 7 days, serum, negative = elevation
[11] = 30 mg/kg oral once daily for 7 days, serum, negative = elevation
[12] = 60 mg/kg oral once daily for 7 days, serum, negative = elevation
[13] = 120 mg/kg oral once daily for 7 days, serum, negative = elevation
[14] = Example 9 (Table 12), 15 mg/kg p.o.

## N#CN=C1NC(=O)/C(=C\c2ccc(C=Cc3ccccc3)cc2)S1 [Compound 1, 2-(N-Cyanoimino)-5-[(E)-4-stylylbenzylidene]thiazolidin-4-one]
[1]
  Reduction Rate (%) Free Fatty Acids: 39%
  Reduction Rate (%) Triglycerides: 69%
  Reduction Rate (%) β-lipoproteins: 51%
[2]; [8]
  Reduction in Blood Glucose (%): 31%
[2]; [9]
  Reduction in Blood Glucose (%): 37%
[3]
  Mutagenicity (number of reversely mutated colonies): non-mutagenic
[4]
  Reduction in Serum Triglyceride (%): 47%
[5]
  Survival after single oral dose: all 3 mice given the respective compounds survived
[6]; [10]
  Reduction Rate (%) Total cholesterol: 26%
  Reduction Rate (%) Triglyceride: 60%
[6]; [11]
  Reduction Rate (%) Total cholesterol: 25%
  Reduction Rate (%) Triglyceride: 62%
[6]; [12]
  Reduction Rate (%) Total cholesterol: 29%
  Reduction Rate (%) Triglyceride: 69%
[6]; [13]
  Reduction Rate (%) Total cholesterol: 41%
  Reduction Rate (%) Triglyceride: 80%
[7]
  Absorbance Ratio: 1.46

## CC(=Cc1ccccc1)c1ccc(/C=C2/SC(=NC#N)NC2=O)cc1 [Compound 2, 2-(N-Cyanoimino)-5-[(E)-4-(α-methylstyryl)benzylidene]thiazolidin-4-one]
[4]
  inhibition in vivo at 30 mg/kg: 67%
[6]; [14]
  Reduction Rate (%) Total cholesterol: 27%
  Reduction Rate (%) Triglyceride: 57%
[7]
  Absorbance Ratio: 1.57

## N#CN=C1NC(=O)C(=Cc2ccc(COCc3ccccc3)cc2)S1 [Compound 3, 2-(N-Cyanoimino)-5-[4-(benzyloxymethyl)benzylidene]thiazolidin-4-one]
[1]
  Reduction Rate (%) Free Fatty Acids: 58%
  Reduction Rate (%) Triglycerides: 85%
  Reduction Rate (%) β-lipoproteins: 65%
[2]; [8]
  Reduction in Blood Glucose (%): 24%
[2]; [9]
  Reduction in Blood Glucose (%): 49%
[4]
  inhibition in vivo at 30 mg/kg: 64%
[7]
  Absorbance Ratio: 1.48

## N#CN=C1NC(=O)C(=Cc2ccc(OCCc3ccccc3)cc2)S1 [Compound 10, 2-(N-Cyanoimino)-5-(4-phenethyloxybenzylidene)thiazolidin-4-one]
[4]
  inhibition in vivo at 30 mg/kg: 39%
[5]
  Survival after single oral dose: all 3 mice given the respective compounds survived
[7]
  Absorbance Ratio: 2.12

## N#CN=C1NC(=O)C(=Cc2ccc(OCc3ccccc3)cc2)S1 [Compound 13]
[1]
  Reduction Rate (%) Free Fatty Acids: 38%
  Reduction Rate (%) Triglycerides: 70%
  Reduction Rate (%) β-lipoproteins: 65%
[4]
  Reduction in Serum Triglyceride (%): 55%
[7]
  Absorbance Ratio: 2.51

## N#CN=C1NC(=O)C(=Cc2ccccc2OCCc2ccccc2)S1 [Compound 21, 2-(N-Cyanoimino)-5-(2-phenethyloxybenzylidene)thiazolidin-4-one]
[1]
  Reduction Rate (%) Free Fatty Acids: 25%
  Reduction Rate (%) Triglycerides: 41%
  Reduction Rate (%) β-lipoproteins: 38%
[4]
  inhibition in vivo at 30 mg/kg: 48%
[7]
  Absorbance Ratio: 2.02

## N#CN=C1NC(=O)C(=Cc2ccc(Oc3ccccc3)cc2)S1 [Compound 22, 2-(N-Cyanoimino)-5-(4-phenoxybenzylidene)thiazolidin-4-one]
[1]
  Reduction Rate (%) Free Fatty Acids: 41%
  Reduction Rate (%) Triglycerides: 65%
  Reduction Rate (%) β-lipoproteins: 56%
[2]; [8]
  Reduction in Blood Glucose (%): 16%
[2]; [9]
  Reduction in Blood Glucose (%): 34%
[4]
  inhibition in vivo at 30 mg/kg: 65%
[7]
  Absorbance Ratio: 1.73

## N#CN=C1NC(=O)/C(=C\c2ccc(C=Cc3ccccc3)cc2)S1.[Na] [Compound 63, 2-(N-Cyanoimino)-5-[(E)-4-stylylbenzylidene]thiazolidin-4-one Sodium Salt]
[2]; [8]
  Reduction in Blood Glucose (%): 32%

## Cc1c(C)c2c(c(C)c1O)CCC(C)(COc1ccc(CC3SC(=O)NC3=O)cc1)O2 (centres unmarked) [troglitazone, reference compound]
[2]; [9]
  Reduction in Blood Glucose (%): 18%
